Data from patent US9078859B2, “Use of a synergistic combination of hypothiocyanite and/or hypohalite ions and lactoferrin for preparing a treatment for cystic fibrosis” (ALAXIA, priority 2009, dated 2015).

Assays:
Type in all cases: cell-based
[1] = system: mucoid strain of Pseudomonas aeruginosa; test: in vitro contact-time test on a mucoid strain of Pseudomonas aeruginosa
Experimental: (§1) The solution from the example was tested in vitro on a mucoid strain of Pseudomonas aeruginosa, Burkholderia cepacia and Methicillin Resistant Staphylococcus Aureus.

[2] = system: Burkholderia cepacia; test: in vitro contact-time test on Burkholderia cepacia
Experimental: as §1
Burkholderia cenocepacia J2315 (ATCC BAA 245 known to be resistant to Tobramycin and Colistin (Holden 2009, Soiza 2004)), derived from patients with cystic fibrosis.

[3] = system: Methicillin Resistant Staphylococcus aureus (MRSA); test: in vitro contact-time test on MRSA
Experimental: as §1
Methicillin Resistant Staphylococcus aureus (MRSA)

N#CSO [500 μM OSCN, hypothiocyanite] showed a bacterial count ([1]; contact time 0 hours) of 4.14 log CFU/ml, a bacterial count ([1]; contact time 0.5 hours) of 3.23 log CFU/ml and a bacterial count ([1]; contact time 1 hour) of 3.16 log CFU/ml. For the same compound, the bacterial count ([1]; contact time 2 hours) was 2.98 log CFU/ml, the bacterial count ([1]; contact time 4 hours) was 2.08 log CFU/ml and the bacterial count ([1]; contact time 6 hours) was 1.90 log CFU/ml. For the same compound, the bacterial count ([1]; contact time 24 hours) was 1.78 log CFU/ml, the bacterial count ([2]; contact time 0 hours) was 4.41 log CFU/ml and the bacterial count ([2]; contact time 0.5 hours) was 3.64 log CFU/ml. It also gave a bacterial count ([2]; contact time 1 hour) of 3.56 log CFU/ml, a bacterial count ([2]; contact time 2 hours) of 3.03 log CFU/ml and a bacterial count ([2]; contact time 4 hours) of 2.08 log CFU/ml. The bacterial count ([2]; contact time 6 hours) was 1.98 log CFU/ml, the bacterial count ([2]; contact time 24 hours) was 1.78 log CFU/ml and the bacterial count ([3]; contact time 0 hours) was 4.15 log CFU/ml. It also gave a bacterial count ([3]; contact time 0.5 hours) of 3.80 log CFU/ml, a bacterial count ([3]; contact time 1 hour) of 3.70 log CFU/ml and a bacterial count ([3]; contact time 2 hours) of 3.33 log CFU/ml. The bacterial count ([3]; contact time 4 hours) was 2.89 log CFU/ml, the bacterial count ([3]; contact time 6 hours) was 2.25 log CFU/ml and the bacterial count ([3]; contact time 24 hours) was 1.97 log CFU/ml.
